Data published in patent US20230096663A1, “FARNESOID X RECEPTOR MODULATING COMPOUNDS AND METHODS OF USING THE SAME” (Inorbit Therapeutics AB, priority 2020, published 2023).
Like-named read-outs stand apart in the source and are kept apart here.

Legend:
[1] = Metabolism in human microsomes; assay type: in vitro ADME; conditions: 37° C.
Method: Microsomal mixes (247.5 μL) of human microsomes (1250 μL, 4 mg/ml), potassium phosphate buffer (1250 μL), alamethecin (12.5 μL, 5 mg/ml) and cofactors Nicotinamide Adenine Dinucleotide Phosphate NADPH (1250 μL, 4 mM)/uridine 5′-diphospho-glucuronic acid UDPGA (1250 μL, 4 mM) or UDPGA only were loaded onto a shaker for 10 minutes. The test compound (2.5 μL, 100 μM) was then separately added to both microsomal mixes (i.e., one mix with NADPH and one mix without NADPH), incubated at 37° C. and sampled at predetermined time points. Analysis was performed using a AB SCIEX QTRAP 4500 LC-MS/MS, a Kinetex C18, 50*4.6 mm, 5 μm column and eluting with 10 mM Ammonium Acetate/Methanol.
Table 3 summarizes the % of compound remaining after 45 minutes of incubation with human microsomes either in the presence of co-factors UDPGA and NADPH or UDPGA only.

[2] = Metabolic identification in human hepatocytes; assay type: in vitro ADME
Method: (§1) A 10 mM stock of test compound from Example 2 (sodium 2-(3-((5-cyclopropyl-3-(2-(trifluoromethoxy)phenyl)isoxazol-4-yl)methoxy)-8-azabicyclo[3.2.1]octan-8-yl)-4-fluorobenzo[d]thiazole-6-sulfinate) was prepared in DMSO. 20 μM of final working stock was then prepared by diluting 4 μL of 10 mM stock in 1996 μL of Krebs-Hensleit buffer. 200 μL of hepatocyte cell suspension (2×10^6 cells/mL) was added to TPP 48 well plate and preincubated for 30 min @ 37° C. in incubator. 200 μL of 20 μM working stock of test compound was added to the cell suspension and incubated in an incubator on vibramax at a shaking speed of 500 rpm. For the 0 min sample, 25 μL of hepatocyte suspension was precipitated with 200 μL of acetonitrile and 25 μL of 20 μM test compound was added. The reaction was stopped at 15, 30, 60, 90, 120 min by precipitating 50 μL of incubation mixture with 200 μL of acetonitrile. The samples were vortexed for 5 min at 1200 rpm and centrifuged at 4000 rpm for 10 min. The supernatant was separated, diluted 2 fold with water and analysed using a HPLC (Shimadzu SIL HTS) and mass spectrometer (5500 Qtrap). Acetonitrile and 0.1% formic acid in Milli-q-water were used as the mobile phase, using a column of either Waters Xbridge C18, 250×3.0 mm, 5.0μ particle size or Phenomnex kinetex 5μ EVO C18 100 A, 50×4.6 mm 5.0μ particle size.
Table 4 summarizes the major metabolites observed when the compound of Example 2 of the invention was incubated in human, dog or mouse hepatocytes.

STAM model NASH mice = assay: In-vivo efficacy in STAM model of non-alcoholic steatohepatitis; conditions: oral once daily for three weeks, 0.3, 1 or 3 mg/kg
Method: NASH was induced in male mice by a single subcutaneous injection of 200 μg streptozotocin (STZ, Sigma-Aldrich, USA) solution 2 days after birth and feeding with high fat diet (HFD, 57 kcal % fat, Cat #HFD32, CLEA Japan, Inc., Japan) after 4 weeks of age. NASH model mice were randomized into groups of 8 mice at 6 weeks of age based on their body weight the day before the start of treatment. The compound of Example 2 was then administered orally in a volume of 10 ml/kg at dose levels 0.3 mg/kg, 1 mg/kg and 3 mg/kg once daily for 3 weeks. […] NAFLD Activity score (NAS) was calculated according to the criteria of Kleiner (Kleiner D E. et al., Hepatology, 2005; 41:1313). […] For quantitative analysis of fibrosis area, bright field images of Sirius red-stained sections were captured around the central vein using a digital camera (DFC295; Leica, Germany) at 200-fold magnification, and the positive areas in 5 fields/section were measured using ImageJ software (National Institute of Health, USA). […] The score can be used to quantify changes in NAFLD during disease progression and on administration of potential therapeutics. In order to quantify the degree of fibrosis Sirius red stained liver sections were used to visualise and study collagen distribution.

[3] = Metabolic identification in mouse hepatocytes; assay type: in vitro ADME; conditions: up to 120 min
Method: as §1, with “size. […]” for “size.”

[4] = Compound exposure in plasma and liver of HFHC fed male mice; assay type: in vivo; conditions: C57BL/6J, mouse, oral; for Kp at 4 h: liver/plasma, 4 hours after last dose on day 28, read-out: Ratio (liver to plasma exposure)

For `O=S([O-])c1cc(F)c2nc(N3[C@@H]4CC[C@H]3C[C@@H](OCc3c(-c5ccccc5OC(F)(F)F)noc3C3CC3)C4)sc2c1.[Na+]` [Example 2, Sodium 2-(3-((5-cyclopropyl-3-(2-(trifluoromethoxy)phenyl)isoxazol-4-yl)methoxy)-8-azabicyclo[3.2.1]octan-8-yl)-4-fluorobenzo[d]thiazole-6-sulfinate], the “% remaining @ 45 mins of incubation with UDPGA” value ([1]; co-factor UDPGA only) was 94%, the “% remaining @ 45 mins of incubation with UDPGA and NADPH” value ([1]; co-factors UDPGA and NADPH) was 52% and the “Major metabolite by MS/MS (FIG. 14)” value ([2]; 120 mins) was “hydroxy compound”. For the same molecule, the Acyl-Glucuronide ([2]; up to 120 min) was “No”, the “Observed Major Metabolites” value ([2]; up to 120 min) was “Hydroxy, Alkenyl and Alkenyl-hydroxy” and the “Fibrosis area (Sirius red positive area)” value (STAM model NASH mice) was “Significant reductions”. For the same molecule, the “NAFLD Activity score (NAS)” value (STAM model NASH mice) was “Significant reductions”, the Acyl-Glucuronide [3] was “No” and the “Observed Major Metabolites” value [3] was “Hydroxy, Di-hydroxy and Alkenyl-hydroxy”. It also gave a concentration at 4 h ([4]; liver, 3 mg/kg, 3 mg/kg BID oral, 4 hours after last dose on day 28, read-out: Mean compound exposure, Liver) of 54.8 ng/g, a concentration at 4 h ([4]; liver, 10 mg/kg, 10 mg/kg BID oral, 4 hours after last dose on day 28, read-out: Mean compound exposure, Liver) of 138 ng/g and a concentration at 4 h ([4]; liver, 10 mg/kg, 10 mg/kg QD oral, 4 hours after last dose on day 28, read-out: Mean compound exposure, Liver) of 80.1 ng/g. For the same molecule, the Kp at 4 h ([4]; 3 mg/kg, 3 mg/kg BID oral) was 54.8, the Kp at 4 h ([4]; 10 mg/kg, 10 mg/kg BID oral) was 65.9 and the Kp at 4 h ([4]; 10 mg/kg, 10 mg/kg QD oral) was 66.8. For the same molecule, the concentration at 4 h ([4]; plasma, 3 mg/kg, 3 mg/kg BID oral, 4 hours after last dose on day 28, read-out: Mean compound exposure, Plasma) was 1 ng/mL, the concentration at 4 h ([4]; plasma, 10 mg/kg, 10 mg/kg BID oral, 4 hours after last dose on day 28, read-out: Mean compound exposure, Plasma) was 2.1 ng/mL and the concentration at 4 h ([4]; plasma, 10 mg/kg, 10 mg/kg QD oral, 4 hours after last dose on day 28, read-out: Mean compound exposure, Plasma) was 1.2 ng/mL.
